From US20090280483A1, “Methods for Screening Interleukin-6 (IL-6) Signal Transduction Inhibitors” (priority 2005, published 2009)
One block for each molecule: values may come before it.

Key:
KT-3 cells = test: Negative screening: IL-6-dependent proliferation of KT-3 cells (FACS); type: cell-based; conditions: 10 μM (No. 4 at 2 μM), human IL-6 5 ng/ml, 48 hours
Method: Human tumor cell line KT-3 cells known to have the property of proliferating by IL-6 stimulation were used for negative screening.
KT-3 cells were grown to confluency, and plated on 6-well plates at 1×10^5 cells/well in RPMI medium supplemented with 10% fetal calf serum (FCS) containing human IL-6 (5 ng/ml). After incubation for 3 hours, dimethyl sulfoxide (DMSO) and the 18 compounds (Nos. 1-18) each at a final concentration of 10 μM (except for No. 4 at 2 μM) were added, and incubation was continued for 48 hours.
The human tumor cell line KT-3 cells treated as above were suspended at about 1×10^6 cells/100 μl in RPMI medium supplemented with 10% FCS. Then, FSC/SSC dot plots of these cells were obtained by using FACS Calibur (Becton Dickinson).

STAT3 [1] = molecular target: T1, STAT3 (Homo sapiens, UniProt P40763); test: Western blotting of IL-6-induced tyrosine phosphorylation of STAT3 in 293T cells; type: cell-based; conditions: 20 μM for 1 hour, then IL-6 10 ng/ml for 16 hours
T1 construct: Exponentially proliferating 293T cells cultured in Dulbecco's Modified Eagle's Medium; endogenous in cells; host or cells: 293T cells
T1 sequence (P40763 whole entry): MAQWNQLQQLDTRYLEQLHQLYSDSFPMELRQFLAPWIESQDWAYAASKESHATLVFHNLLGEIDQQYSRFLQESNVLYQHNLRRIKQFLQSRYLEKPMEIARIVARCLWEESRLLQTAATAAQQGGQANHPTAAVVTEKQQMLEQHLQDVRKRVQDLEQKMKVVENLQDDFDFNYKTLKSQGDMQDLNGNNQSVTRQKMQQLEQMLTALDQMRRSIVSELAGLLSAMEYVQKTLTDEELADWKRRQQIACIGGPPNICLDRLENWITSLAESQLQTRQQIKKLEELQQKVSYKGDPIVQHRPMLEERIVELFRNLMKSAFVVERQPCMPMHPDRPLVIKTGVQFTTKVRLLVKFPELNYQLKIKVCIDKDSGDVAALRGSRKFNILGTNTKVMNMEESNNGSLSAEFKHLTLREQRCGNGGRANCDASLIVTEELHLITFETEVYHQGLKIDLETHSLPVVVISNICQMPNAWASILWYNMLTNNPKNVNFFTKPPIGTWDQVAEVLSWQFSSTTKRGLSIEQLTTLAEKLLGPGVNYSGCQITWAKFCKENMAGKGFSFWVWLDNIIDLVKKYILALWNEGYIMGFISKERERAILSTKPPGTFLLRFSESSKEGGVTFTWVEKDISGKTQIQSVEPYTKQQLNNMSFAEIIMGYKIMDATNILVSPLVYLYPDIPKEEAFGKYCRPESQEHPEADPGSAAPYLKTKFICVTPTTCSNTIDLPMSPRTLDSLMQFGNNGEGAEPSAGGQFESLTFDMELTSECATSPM
Method: Exponentially proliferating 293T cells cultured in Dulbecco's Modified Eagle's Medium (DMEM) supplemented with 10% fetal calf serum (FCS) in culture dish were incubated with dimethyl sulfoxide (DMSO) and Compounds No. 1, 2, 4, 7, 10, 13, 14 or 16 at a final concentration of 20 μM for 1 hour. Then, the cells were divided into two equal parts and incubated with or without murine IL-6 at a final concentration of 10 ng/ml for further 16 hours. Then, the 293T cells were suspended at a density of 1×10^7 cells/ml in lysis buffer, and placed on ice for 30 minutes. The precipitate was removed by centrifuging the cell lysate at 12000 g for 15 minutes.
The subsequent Western blot step was performed by the method described above.

STAT3 [2] = molecular target: T1, STAT3; test: Luciferase assay of IL-6-induced transcriptional activity of STAT3 in 293T cells; type: cell-based; conditions: GFAP promoter firefly luciferase reporter, 20 μM for 1 hour, then human IL-6 10 ng/ml for 16 hours
Method: A reporter vector (2 μg) containing the firefly luciferase gene linked downstream of the glial fibrillary acidic protein (GFAP) gene promoter sequence and an internal control vector (0.1 μg) containing the EF1 gene promoter linked to the Renilla luciferase gene were transfected into 293T cells at 1×10^6 cells/well in 12-well plates using Lipofectamine Plus Reagent (Life Technologies, Bethesda, Md.) as instructed by the manufacturer. Twenty-three hours after the transfection, dimethyl sulfoxide (DMSO) and Compounds No. 1, 2, 4, 7, 10, 13, 14 and 16 each at a final concentration of 20 μM were added. One hour after the compounds were added, the cells treated with each compound were divided into two equal parts and stimulated or not with human IL-6 at a final concentration of 10 ng/ml. After 16 hours, cell extracts were prepared from the cells and measured for the specific activity of firefly luciferase to Renilla luciferase using Dual luciferase reporter system (Promega, Madison, Wis.).

ERK1/2 = test: Western blotting of IL-6-induced phosphorylation of ERK1/2 in M1 cells; type: cell-based; conditions: murine IL-6 10 ng/ml, time course 0 to 24 hours
STAT3 [3] = molecular target: T2, STAT3 (Mus musculus, UniProt P42227); test: Western blotting of IL-6-induced tyrosine phosphorylation of STAT3 in M1 cells; type: cell-based, murine
T2 construct: Exponentially proliferating M1 cells cultured in RPMI medium; endogenous in cells; host or cells: M1 cells
T2 sequence (P42227 whole entry): as the sequence (P40763 whole entry) above, with E760D counted along it
Method: Exponentially proliferating M1 cells cultured in RPMI medium supplemented with 10% fetal calf serum (FCS) in culture dish were treated with dimethyl sulfoxide (DMSO) and Compound No. 1, 2, 7, 10, 13, 14 or 16 at a final concentration of 10 μM for 30 minutes. Then, the cells were divided into two equal parts and incubated with or without murine IL-6 at a final concentration of 10 ng/ml for further 1 hour. Then, the M1 cells were suspended at a density of 1×10^7 cells/ml in lysis buffer (0.5% Triton X-100, 50 mM Tris-HCl, (pH7.5), 0.1 mM EDTA, 150 mM NaCl, 200 μM Na3VO4, 50 mM NaF, 1 mM dithiothreitol (DTT), 0.4 mM phenylmethylsulfonyl fluoride (PMSF), 3 μg/mL aprotinin, 2 μg/mL pepstatin A, 1 μg/mL leupeptin) and placed on ice for 30 minutes. The precipitate was removed by centrifuging the cell lysate at 12000 g for 15 minutes.
The samples thus obtained were separated by sodium dodecyl sulfate-polyacrylamide gel electrophoresis (SDS-PAGE). After the electrophoresis, the gel was placed on a PVDF transfer membrane prewetted in methanol for 10-20 seconds and then soaked in transfer buffer (25 mM tris, 192 mM glycine, 10% methanol, 0.1% SDS), and the assembly was sandwiched between two layers each consisting of 5 sheets of filter paper soaked in transfer buffer, whereby proteins were transferred to the transfer membrane using a semi-dry transfer method.
After transfer, the transfer membrane was shaken in blocking buffer (5% BSA, 1% BSA, 0.1% NaN3) for 30 minutes or more. Then, the membrane was washed with PBST (137 mM NaCl, 2.7 mM KCl, 1.5 mM KH2PO4, 8.1 mM Na2HPO4, 0.05% Tween20) three times for 5 minutes by shaking. The membrane was shaken for 60 minutes in an anti-STAT3 polyclonal antibody (C-20, Santa Cruz Biotechnology, Santa Cruz, Calif.) and an anti-phosphorylated STAT3 monoclonal antibody (B-7, Santa Cruz Biotechnology) as primary antibodies both diluted 1:1000 in PBST.
Then, the membrane was washed with PBST three times for 5 minutes by shaking. […]

SMILES: Br.O=[N+]([O-])c1ccc(-c2csc(Nc3cc(C(F)(F)F)cc(C(F)(F)F)c3)n2)cc1 [Compound No. 1]
inhibition of IL-6-dependent proliferation of KT-3 cells (KT-3 cells): inhibition of cell proliferation

inhibition of tyrosine phosphorylation of STAT3 (STAT3 [1]): obvious inhibition | inhibitory effect on the transcriptional activity of STAT3 (STAT3 [2]): obvious inhibitory effect | inhibition of tyrosine phosphorylation of STAT3 (time course) (STAT3 [3]; murine IL-6 10 ng/ml, at 3, 6, and 24 hours after the compound was added): obvious inhibition
SMILES: Br.O=[N+]([O-])c1ccc(-c2csc(Nc3cc(C(F)(F)F)cc(C(F)(F)F)c3)n2)cc1 [Compound No. 2]
influence on the phosphorylation of ERK1/2 induced by IL-6 (ERK1/2): no influence

inhibition of tyrosine phosphorylation of STAT3 (STAT3 [3]; 10 μM for 30 minutes, then murine IL-6 10 ng/ml for 1 hour): obvious inhibition | inhibition of tyrosine phosphorylation of STAT3 (time course) (STAT3 [3]; 10 μM, IL-6 10 ng/ml, at 3 hours or later after the compounds were added): inhibition
SMILES: Br.O=[N+]([O-])c1ccc(-c2csc(Nc3cc(C(F)(F)F)cc(C(F)(F)F)c3)n2)cc1 [compound 13]
